Experimental data reported in patent US12257287B2, “Glucagon-derived peptide and use thereof” (Tianjin Institute of Pharmaceutical Research Co., Ltd., priority 2018, dated 2025).
Converted amounts (≈) assume the structure as drawn. Numbered stars: 1 amine (or outer) side, 2 acyl side, 3 side chain; on linkers, the order of the positions; unused ones are H or OH. Square brackets hold non-standard residues; d marks the D form. Side chains are listed from the residue outwards. Peptide text beside a SMILES is read from it. * marks the point of attachment. C18 diacid = O=C(O)CCCCCCCCCCCCCCCCC(=O)*; γGlu = O=C(O)[C@H](CCC(=O)[*:2])N[*:1]; AEEA = NCCOCCOCC(=O)O; Aib = CC(C)(N)C(=O)O

Key:
[1] = molecular target: T1, GC receptor (Homo sapiens, UniProt P47871); test: GC receptor mediated cAMP production in vitro (HEK293 cells transfected with GC receptor); type: cell-based; conditions: 20 min at 37° C., read-out: GCGR (nM EC50)
T1 construct: expressed in transfected cells; host or cells: HEK293 cells
T1 sequence (P47871 26-477): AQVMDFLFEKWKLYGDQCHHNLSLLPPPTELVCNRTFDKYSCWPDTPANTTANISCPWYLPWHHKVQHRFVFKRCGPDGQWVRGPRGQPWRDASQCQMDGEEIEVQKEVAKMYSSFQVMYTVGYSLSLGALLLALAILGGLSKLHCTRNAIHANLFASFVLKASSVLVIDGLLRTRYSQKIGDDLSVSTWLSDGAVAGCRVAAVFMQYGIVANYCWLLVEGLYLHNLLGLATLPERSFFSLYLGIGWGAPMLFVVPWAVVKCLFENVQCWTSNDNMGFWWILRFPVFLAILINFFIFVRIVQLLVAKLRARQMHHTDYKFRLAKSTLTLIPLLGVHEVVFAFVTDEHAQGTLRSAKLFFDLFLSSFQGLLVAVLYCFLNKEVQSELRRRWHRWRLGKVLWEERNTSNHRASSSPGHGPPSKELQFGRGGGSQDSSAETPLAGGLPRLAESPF
From the text: The medium was removed, the cells were lysed, and cAMP values were detected referring to the detection method described for the assay kit.

[2] = physchem; type: physicochemical
[3] = pH 7.5, Solubility, pH 7.5, 10 mM phosphate buffer
[4] = pH 7.5, Solubility, pH 7.5, 20 mM phosphate buffer
[5] = pH 8, Solubility, pH 8.0, 10 mM phosphate buffer
[6] = pH 8, Solubility, pH 8.0, 20 mM phosphate buffer
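For Solubility in this document: compound added at 2 mg per mL of phosphate buffer, with the dissolved amount determined in the supernatant.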
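For Solubility, pH 7.5, 20 mM phosphate buffer in this document: compound added at 2 mg per mL of phosphate buffer, with the dissolved amount determined in the supernatant.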

Structure (SMILES)	EC50 [1]	solubility [2, 3]	solubility [2, 4]	solubility [2, 5]	solubility [2, 6]	Solubility, pH 7.5, 20 mM phosphate buffer ([2]; pH 7.5)
CCCCCCCCCCCCCCCC(=O)N[C@@H](CCC(=O)N[C@@H](CCC(=O)NCCCC[C@H](NC(=O)[C@H](C)NC(=O)[C@H](CCCNC(=N)N)NC(=O)[C@H](CCCCN)NC(=O)[C@H](CCC(=O)O)NC(=O)[C@H](CCC(=O)O)NC(=O)[C@H](CC(C)C)NC(=O)[C@H](Cc1ccc(O)cc1)NC(=O)[C@H](CCCCN)NC(=O)[C@H](CO)NC(=O)[C@H](Cc1ccc(O)cc1)NC(=O)[C@H](CC(=O)O)NC(=O)[C@H](CO)NC(=O)[C@@H](NC(=O)[C@H](Cc1ccccc1)NC(=O)[C@@H](NC(=O)CNC(=O)[C@H](CCC(N)=O)NC(=O)C(C)(C)NC(=O)[C@@H](N)Cc1c[nH]cn1)[C@@H](C)O)[C@@H](C)O)C(=O)N[C@@H](CCC(=O)O)C(=O)N[C@@H](Cc1ccccc1)C(=O)N[C@H](C(=O)N[C@@H](CCC(=O)O)C(=O)N[C@@H](Cc1c[nH]c2ccccc12)C(=O)N[C@@H](CC(C)C)C(=O)N[C@@H](CC(C)C)C(=O)N[C@@H](CCC(=O)O)C(=O)N[C@@H](C)C(=O)NCC(=O)NCC(=O)N1CCC[C@H]1C(=O)N[C@@H](CO)C(=O)N[C@@H](CO)C(=O)NCC(N)=O)C(C)C)C(=O)O)C(=O)O [Compound 26] (HELM PEPTIDE1{H.[Aib].Q.G.T.F.T.S.D.Y.S.K.Y.L.E.E.K.R.A.K.E.F.V.E.W.L.L.E.A.G.G.P.S.S.G.[am]}|PEPTIDE2{[CCCCCCCCCCCCCCCC(=O)[*:2]].[gGlu].[gGlu]}$PEPTIDE1,PEPTIDE2,20:R3-3:R2$$$V2.0; N-terminus assumed)	0.197 nM	80 µg/mL (≈ 18.1 µM)		200 µg/mL (≈ 45.2 µM)	100 µg/mL (≈ 22.6 µM)	Insoluble
CC(C)C[C@H](NC(=O)[C@H](Cc1c[nH]c2ccccc12)NC(=O)[C@H](CCC(=O)O)NC(=O)[C@@H](NC(=O)[C@H](Cc1ccccc1)NC(=O)[C@H](CCC(=O)O)NC(=O)[C@H](CCCCNC(=O)COCCOCCNC(=O)COCCOCCNC(=O)CC[C@H](NC(=O)CCCCCCCCCCCCCCCCC(=O)O)C(=O)O)NC(=O)[C@H](C)NC(=O)[C@H](CCCCN)NC(=O)[C@H](CCCNC(=N)N)NC(=O)[C@H](CCC(=O)O)NC(=O)[C@H](CC(=O)O)NC(=O)[C@H](CC(C)C)NC(=O)[C@H](Cc1ccc(O)cc1)NC(=O)[C@H](CCCCN)NC(=O)[C@H](CO)NC(=O)[C@H](Cc1ccc(O)cc1)NC(=O)[C@H](CC(=O)O)NC(=O)[C@H](CO)NC(=O)[C@@H](NC(=O)[C@H](Cc1ccccc1)NC(=O)[C@@H](NC(=O)CNC(=O)[C@H](CCC(N)=O)NC(=O)C(C)(C)NC(=O)[C@@H](N)Cc1c[nH]cn1)[C@@H](C)O)[C@@H](C)O)C(C)C)C(=O)N[C@@H](CCC(=O)O)C(=O)N[C@@H](C)C(=O)NCC(=O)NCC(=O)N1CCC[C@H]1C(=O)N[C@@H](CO)C(=O)N[C@@H](CO)C(=O)NCC(N)=O [Compound 42] (H-H[Aib]QGTFTSDYSKYLDERKAK([AEEA-AEEA-γGlu-C18 diacid])EFVEWLEAGGPSSG-NH2; N-terminus assumed)	0.024 nM	1720 µg/mL (≈ 380 µM)	1510 µg/mL (≈ 334 µM)	> 2000 µg/mL	> 2000 µg/mL	
CCCCCCCCCCCCCCCC(=O)N[C@@H](CCC(=O)N[C@@H](CCC(=O)NCCCC[C@H](NC(=O)[C@H](C)NC(=O)[C@H](CCCCN)NC(=O)[C@H](CCCNC(=N)N)NC(=O)[C@H](CCC(=O)O)NC(=O)[C@H](CCC(=O)O)NC(=O)[C@H](CC(C)C)NC(=O)[C@H](Cc1ccc(O)cc1)NC(=O)[C@H](CCCCN)NC(=O)[C@H](CO)NC(=O)[C@H](Cc1ccc(O)cc1)NC(=O)[C@H](CC(=O)O)NC(=O)[C@H](CO)NC(=O)[C@@H](NC(=O)[C@H](Cc1ccccc1)NC(=O)[C@@H](NC(=O)CNC(=O)[C@H](CCC(N)=O)NC(=O)C(C)(C)NC(=O)[C@@H](N)Cc1c[nH]cn1)[C@@H](C)O)[C@@H](C)O)C(=O)N[C@@H](CCC(=O)O)C(=O)N[C@@H](Cc1ccccc1)C(=O)N[C@H](C(=O)N[C@@H](CCC(=O)O)C(=O)N[C@@H](Cc1c[nH]c2ccccc12)C(=O)N[C@@H](CC(C)C)C(=O)N[C@@H](CCC(=O)O)C(=O)NCC(=O)NCC(=O)N1CCC[C@H]1C(=O)N[C@@H](CO)C(=O)N[C@@H](CO)C(=O)NCC(N)=O)C(C)C)C(=O)O)C(=O)O [Compound 62] (HELM PEPTIDE1{H.[Aib].Q.G.T.F.T.S.D.Y.S.K.Y.L.E.E.R.K.A.K.E.F.V.E.W.L.E.G.G.P.S.S.G.[am]}|PEPTIDE2{[CCCCCCCCCCCCCCCC(=O)[*:2]].[gGlu].[gGlu]}$PEPTIDE1,PEPTIDE2,20:R3-3:R2$$$V2.0; N-terminus assumed)	0.156 nM	1170 µg/mL (≈ 276 µM)	850 µg/mL (≈ 200 µM)	1630 µg/mL (≈ 384 µM)	1590 µg/mL (≈ 375 µM)	

Next, values leading:

EC50 [1]	solubility [2, 3]	solubility [2, 4]	solubility [2, 5]	solubility [2, 6]	Solubility, pH 7.5, 20 mM phosphate buffer ([2]; pH 7.5)	Structure (SMILES)
0.175 nM	> 2000 µg/mL	> 2000 µg/mL				CCCCCCCCCCCCCCCC(=O)N[C@@H](CCC(=O)N[C@@H](CCC(=O)NCCCC[C@H](NC(=O)[C@H](CC(=O)O)NC(=O)[C@H](CO)NC(=O)[C@@H](NC(=O)[C@H](Cc1ccccc1)NC(=O)[C@@H](NC(=O)CNC(=O)[C@H](CCC(N)=O)NC(=O)C(C)(C)NC(=O)[C@@H](N)Cc1c[nH]cn1)[C@@H](C)O)[C@@H](C)O)C(=O)N[C@@H](CO)C(=O)N[C@@H](CCCCN)C(=O)N[C@@H](Cc1ccc(O)cc1)C(=O)N[C@@H](CC(C)C)C(=O)N[C@@H](CCC(=O)O)C(=O)N[C@@H](CCC(=O)O)C(=O)N[C@@H](CCCNC(=N)N)C(=O)N[C@@H](C)C(=O)N[C@@H](C)C(=O)N[C@@H](CCCCN)C(=O)N[C@@H](CCC(=O)O)C(=O)N[C@@H](Cc1ccccc1)C(=O)N[C@H](C(=O)N[C@@H](C)C(=O)N[C@@H](Cc1c[nH]c2ccccc12)C(=O)N[C@@H](CC(C)C)C(=O)N[C@@H](CCC(=O)O)C(=O)NCC(=O)NCC(=O)N1CCC[C@H]1C(=O)N[C@@H](CO)C(=O)N[C@@H](CO)C(=O)NCC(N)=O)[C@@H](C)CC)C(=O)O)C(=O)O [Compound 21] (HELM PEPTIDE1{H.[Aib].Q.G.T.F.T.S.D.K.S.K.Y.L.E.E.R.A.A.K.E.F.I.A.W.L.E.G.G.P.S.S.G.[am]}|PEPTIDE2{[CCCCCCCCCCCCCCCC(=O)[*:2]].[gGlu].[gGlu]}$PEPTIDE1,PEPTIDE2,10:R3-3:R2$$$V2.0; N-terminus assumed)
0.278 nM	300 µg/mL (≈ 69.2 µM)	100 µg/mL (≈ 23.1 µM)	500 µg/mL (≈ 115 µM)	200 µg/mL (≈ 46.1 µM)		CCCCCCCCCCCCCCCC(=O)N[C@@H](CCC(=O)N[C@@H](CCC(=O)NCCCC[C@H](NC(=O)[C@H](CC(=O)O)NC(=O)[C@H](CO)NC(=O)[C@@H](NC(=O)[C@H](Cc1ccccc1)NC(=O)[C@@H](NC(=O)CNC(=O)[C@H](CCC(N)=O)NC(=O)C(C)(C)NC(=O)[C@@H](N)Cc1c[nH]cn1)[C@@H](C)O)[C@@H](C)O)C(=O)N[C@@H](CO)C(=O)N[C@@H](CCCCN)C(=O)N[C@@H](Cc1ccc(O)cc1)C(=O)N[C@@H](CC(C)C)C(=O)N[C@@H](CCC(=O)O)C(=O)N[C@@H](CCC(=O)O)C(=O)N[C@@H](CCCNC(=N)N)C(=O)N[C@@H](C)C(=O)N[C@@H](C)C(=O)N[C@@H](CCCCN)C(=O)N[C@@H](CCC(=O)O)C(=O)N[C@@H](Cc1ccccc1)C(=O)N[C@H](C(=O)N[C@@H](CCC(=O)O)C(=O)N[C@@H](Cc1c[nH]c2ccccc12)C(=O)N[C@@H](CC(C)C)C(=O)N[C@@H](CC(C)C)C(=O)N[C@@H](CCC(=O)O)C(=O)N[C@@H](C)C(=O)NCC(=O)NCC(=O)N1CCC[C@H]1C(=O)N[C@@H](CO)C(=O)N[C@@H](CO)C(=O)NCC(N)=O)C(C)C)C(=O)O)C(=O)O [Compound 25] (HELM PEPTIDE1{H.[Aib].Q.G.T.F.T.S.D.K.S.K.Y.L.E.E.R.A.A.K.E.F.V.E.W.L.L.E.A.G.G.P.S.S.G.[am]}|PEPTIDE2{[CCCCCCCCCCCCCCCC(=O)[*:2]].[gGlu].[gGlu]}$PEPTIDE1,PEPTIDE2,10:R3-3:R2$$$V2.0; N-terminus assumed)
0.092 nM	140 µg/mL (≈ 33.2 µM)	50 µg/mL (≈ 11.8 µM)	160 µg/mL (≈ 37.9 µM)	200 µg/mL (≈ 47.4 µM)		CCCCCCCCCCCCCCCC(=O)N[C@@H](CCC(=O)N[C@@H](CCC(=O)NCCCC[C@H](NC(=O)[C@H](CC(=O)O)NC(=O)[C@H](CO)NC(=O)[C@@H](NC(=O)[C@H](Cc1ccccc1)NC(=O)[C@@H](NC(=O)CNC(=O)[C@H](CCC(N)=O)NC(=O)C(C)(C)NC(=O)[C@@H](N)Cc1c[nH]cn1)[C@@H](C)O)[C@@H](C)O)C(=O)N[C@@H](CO)C(=O)N[C@@H](CCCCN)C(=O)N[C@@H](Cc1ccc(O)cc1)C(=O)N[C@@H](CC(C)C)C(=O)N[C@@H](CCC(=O)O)C(=O)N[C@@H](CCC(=O)O)C(=O)N[C@@H](CCCNC(=N)N)C(=O)N[C@@H](C)C(=O)N[C@@H](C)C(=O)N[C@@H](CCCCN)C(=O)N[C@@H](CCC(=O)O)C(=O)N[C@@H](Cc1ccccc1)C(=O)N[C@H](C(=O)N[C@@H](C)C(=O)N[C@@H](Cc1c[nH]c2ccccc12)C(=O)N[C@@H](CC(C)C)C(=O)N[C@@H](CC(C)C)C(=O)N[C@@H](CCC(=O)O)C(=O)NCC(=O)NCC(=O)N1CCC[C@H]1C(=O)N[C@@H](CO)C(=O)N[C@@H](CO)C(=O)NCC(N)=O)[C@@H](C)CC)C(=O)O)C(=O)O [Compound 16] (HELM PEPTIDE1{H.[Aib].Q.G.T.F.T.S.D.K.S.K.Y.L.E.E.R.A.A.K.E.F.I.A.W.L.L.E.G.G.P.S.S.G.[am]}|PEPTIDE2{[CCCCCCCCCCCCCCCC(=O)[*:2]].[gGlu].[gGlu]}$PEPTIDE1,PEPTIDE2,10:R3-3:R2$$$V2.0; N-terminus assumed)
